Measured values published in ChEMBL document CHEMBL3045341, “Triterpene saponins of Quillaja saponaria show strong aphicidal and deterrent activity against the pea aphid Acyrthosiphon pisum” (2012).
Values after ≈ are worked out from the molar mass of the structure shown.

What was measured:
Type in all cases: functional
Conditions in all cases: 72 h
[1] = system: Acyrthosiphon pisum; assay: Insecticidal activity against Acyrthosiphon pisum (pea aphid) assessed as mortality at 5 mg/ml after 3 days by no-choice assay
[2] = system: Acyrthosiphon pisum; assay: Insecticidal activity against Acyrthosiphon pisum (pea aphid) assessed as mortality at 1 mg/ml after 3 days by no-choice assay
[3] = system: Acyrthosiphon pisum; assay: Insecticidal activity against Acyrthosiphon pisum (pea aphid) after 3 days by no-choice assay

C[C@@H]1CC[C@@]2(OC1)O[C@H]1C[C@H]3[C@@H]4CC=C5C[C@@H](O)CC[C@]5(C)[C@H]4CC[C@]3(C)[C@H]1[C@@H]2C [DISOGENIN] was tested. Which mortality at 5000 µg/mL [1] did it give?
The mortality at 5000 µg/mL was 18%.

With C[C@@H]1CC[C@@]2(OC1)O[C@H]1[C@@H](O)[C@H]3[C@@H]4CC[C@H]5C[C@@H](O[C@@H]6O[C@H](CO)[C@H](O[C@@H]7O[C@H](CO)C(O)[C@H](O[C@@H]8OC[C@@H](O)[C@H](O)[C@H]8O)[C@H]7O[C@@H]7O[C@H](CO)[C@H](O)[C@H](O[C@@H]8O[C@H](CO)[C@@H](O)[C@H](O)[C@H]8O)[C@H]7O)[C@H](O)[C@H]6O)[C@H](O)C[C@]5(C)[C@H]4CC[C@]3(C)[C@H]1[C@@H]2C (some centres undefined) [DIGITONIN] as the compound, how does the mortality at 5000 µg/mL [1] read?
The mortality at 5000 µg/mL was 14%.

What about the mortality at 1000 µg/mL [2] of the same compound?
The mortality at 1000 µg/mL was 76%.

And the LC50 [3]?
The LC50 was 0.45 µg/mL (≈ 0.366 µM).
